What all share (assay): DTP human tumour cell line panel, 48 h
The test system of assay [1] is CAKI-1 renal.
Assay [2] deals with DU-145 prostate.
The subject of assay [3] is HCC-2998 colon.
Assay [4] concerns HCT-15 colon.
The test system of assay [5] is HOP-62 NSCLC.
Assay [6] relates to RXF 393 renal.
For assay [7], the system named is SF-539 CNS.
The test system of assay [8] is SK-OV-3 ovarian.
For assay [9], the system named is SR leukemia.
For assay [10], the system named is UO-31 renal.

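Cultured in 96-well plates, cells were exposed to test compound for 48 hours across five concentrations. GI50 marks 50% less growth. At the TGI there is no net growth.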

Among the data in PubChem BioAssay (NCI) are GI50 and TGI values, retold here.

In the case of `O=C1c2ccccc2-c2c1c1ccc3ccccc3c1n2-c1ccccc1`, the GI50 in [1] is 22 µM; in [2] it was 39 µM; in [3] it was 30.5 µM; in assay [4], more than 100 µM; in assay [5], 25.1 µM; in assay [6], 18.9 µM. Moreover, the GI50 in [7] is 18.2 µM; in assay [8], 26.2 µM; in assay [9], 41.9 µM; in [10], 44.7 µM. Moreover, the TGI in [1] is 40.9 µM; in assay [2] it was more than 100 µM; in [3], 94.4 µM; in assay [4], more than 100 µM; in assay [5], 58.7 µM; in assay [6] it was 52.1 µM. For the same compound, the TGI in [7] was 36.3 µM; in [8], 54.1 µM; in [9], more than 100 µM; in [10], more than 100 µM.
Take `COC(=O)C[C@@H]1CC=CC(=O)/C1=C(O)/C=C/c1ccccc1`: the GI50 is 0.408 µM in assay [1]; 0.695 µM in assay [2]; 1.72 µM in [3]; 0.294 µM in [4]; 0.56 µM in assay [5]; 0.295 µM in assay [6]. For the same compound, the GI50 in assay [7] was 0.433 µM; in assay [8], 1.7 µM; in assay [9], 0.275 µM; in assay [10] it was 0.303 µM. Also, the TGI in assay [1] was determined as 1.41 µM; in [2], 1.96 µM; in [3], 3.25 µM; in [4], 1.15 µM; in [5] it was 1.86 µM; in [6], 0.888 µM. Also, the concentration for total growth inhibition (TGI) worked out at 7.15 µM in assay [7], 3.88 µM in assay [8] and 0.826 µM in [10].
